Publication PMC7279487, “Dual Target Ligands with 4-tert-Butylphenoxy Scaffold as Histamine H3 Receptor Antagonists and Monoamine Oxidase B Inhibitors” (International Journal of Molecular Sciences, 2020)

Columns and labels:
hMAO B = biological target: T1, hMAO B (Homo sapiens, UniProt P27338); test: hMAO B reversibility studies; format: biochemical; details: inhibitor at IC80; without preincubation; compared with safinamide and rasagiline
T1 construct: purchased Sigma Aldrich M7441
T1 sequence (P27338 1-520): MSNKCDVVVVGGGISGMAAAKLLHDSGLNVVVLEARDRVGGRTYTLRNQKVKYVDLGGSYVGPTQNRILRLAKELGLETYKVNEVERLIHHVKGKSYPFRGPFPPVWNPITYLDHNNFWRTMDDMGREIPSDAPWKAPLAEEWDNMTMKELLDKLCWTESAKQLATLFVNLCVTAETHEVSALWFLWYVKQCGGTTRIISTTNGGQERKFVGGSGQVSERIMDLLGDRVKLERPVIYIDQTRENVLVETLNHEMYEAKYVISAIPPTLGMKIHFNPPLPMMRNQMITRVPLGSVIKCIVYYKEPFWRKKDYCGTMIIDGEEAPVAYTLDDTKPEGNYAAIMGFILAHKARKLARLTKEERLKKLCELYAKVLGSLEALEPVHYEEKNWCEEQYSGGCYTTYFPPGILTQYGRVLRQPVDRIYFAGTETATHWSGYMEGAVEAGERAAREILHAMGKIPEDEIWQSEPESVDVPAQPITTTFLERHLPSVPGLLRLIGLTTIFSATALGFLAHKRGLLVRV
Experimental: Reversibility of MAO B inhibitors was tested as described previously with slight modification. Two experiments were performed simultaneously. In the first experiment, inhibitors (in concentrations corresponding to their IC80 values) were incubated with the enzyme and p-tyramine (10 μM) for 22 min (measuring fluorescence every two minutes).

HEK-293 cells = test: toxicity in HEK-293 cells (EZ4U); format: cell-based, human; details: 48 h incubation; EZ4U
Experimental: The used reference cytostatic drug doxorubicin (DX) decreased cell viability <50% under the same conditions at very low concentrations of 0.2 and 0.05 µM. […] Oxidative damage was induced by very high toxic levels of hydrogen peroxide (H2O2; 300 µM), the popular cell model for PD research, in neuroblastoma SH-SY5Y cell line. […] Salsolinol (SAL) was used at a concentration of 50 µM as the reference compound with the proven neuroprotection activity.
The HEK-293 cells were seeded at a concentration of 1.5 × 10^4 cells/well in 200 μL culture medium and incubated for 24 h at 37 °C and 5% CO2. […] Then, 25 μL EZ4U labelling mixture (Biomedica, Vienna, Austria) was added and the cells were incubated for 2 h. The spectrophotometric absorbance of the samples was measured using a microplate reader (EnSpire, PerkinElmer, Waltham, MA, USA) at 492 nm. All measurements were performed in triplicate, and results are shown as mean ± SD.

[1] = system: haloperidol-induced catalepsy; test: haloperidol-induced catalepsy, crossed-leg position test; format: in vivo, Wistar rats; details: for Times of Observation of Catalepsy (s), 0 min / Times of Observation of Catalepsy (s), 3 min / Times of Observation of Catalepsy (s), 6 min: mean ± SEM (n = 6)
Experimental: Haloperidol (dopamine D2 antagonist)-induced catalepsy in rodents is a popular model for screening of antiparkinsonian activity of compounds [21]. Caused symptoms in animals are similar to the inability of PD patients to initiate movements. […] The reversal of catalepsy was tested for 6 min (3 times in 3 min intervals) after 1 h of haloperidol administration. As the reference compound was used MSX-3, the adenosine A2A receptor antagonist with confirmed ability to reverse catalepsy mediated by D1 and D2 receptor antagonists.
The experiments were carried out on male rats Wistar (180–220 g). Animals were housed in plastic cages in room at a constant temperature of 20 ± 2 °C with natural light–dark cycles. The animals had free access to standard pellet diet and water and were used after a minimum of 3 days of acclimatization to the housing conditions. Control and experimental groups consisted of 6 animals each. All experimental procedures were performed according to the European Union Directive of 22 September 2010 (2010/63/EU) and Polish legislation concerning animal care and use and was approved by the Local Ethics Committee for Experiments on Animals in Kraków, Poland (Resolution No. 70/2014, approval date: 20 May 2014). The examined compound was administered as the suspension in 0.5% methylcellulose in constant volume of 10 mL/kg.
Antiparkinsonian activity in catalepsy tests was performed as described in [28]. Haloperidol was administered s.c. at a dose of 0.63 mg/kg, which in 100% of control animals caused catalepsy. Tested compounds were administered i.p. at the doses 50 and 25 mg/kg body weight, 5 min after haloperidol injection. After 60 min from the injection of haloperidol, to assess the occurrence of catalepsy, the animals were placed in a forced position and the time they remained in this position was measured. Two tests were performed to determine the antiparkinsonian activity: crossed leg position test and bar test. In the first test, the animals were put on the hind paws behind the front (forced position); in the second, the animals were supported on a wooden block (the front paws were placed on a block suspended 10 cm above the ground). Then, the time that the animals remain is measured in a forced position (time was measured to a maximum of 60 s). Observation was carried out 3 times in 3-min intervals. The shortening of the time of catalepsy to the control group was adopted for the antiparkinsonian activity.

## CC(C)(C)c1ccc(OCCCN2CCCCC2)cc1 [DL76, 1-(3-(4-tert-butylphenoxy)propyl)piperidine]
hMAO B
  type of hMAO B inhibition (reversible or irreversible): reversible
HEK-293 cells
  HEK-293 cell viability: observed only at the highest doses of 125 µM and 250 µM
[1]; 25 mg/kg body weight
  duration of catalepsy (versus control 19.25): 8.75
[1]; 25 mg/kg body weight, not statistically significant
  reduction of the duration of catalepsy compared to the control group: 54.5%
[1]; 25 mg/kg
  Times of Observation of Catalepsy (s), 0 min: 0.66 ± 0.68 s
  Times of Observation of Catalepsy (s), 3 min: 10.6 ± 6.1 s
  Times of Observation of Catalepsy (s), 6 min: 15.0 ± 6.7 s
[1]; 50 mg/kg body weight
  duration of catalepsy (versus control 19.25): 0.053
[1]; 50 mg/kg body weight, statistically significant
  reduction of the duration of catalepsy compared to the control group: 99.7%
[1]; 50 mg/kg
  Times of Observation of Catalepsy (s), 0 min: 0 ± 0 s
  Times of Observation of Catalepsy (s), 3 min: 0 ± 0 s
  Times of Observation of Catalepsy (s), 6 min: 0.16 ± 0.4 s
